According to ChEMBL document CHEMBL1127015, “Centrally acting serotonergic and dopaminergic agents. 1. Synthesis and structure-activity relationships of 2,3,3a,4,5,9b-hexahydro-1H-benz[e]indole derivatives” (J Med Chem, 1993):
Values joined by “and” are separate entries in the source; they are usually repeats but may differ in a detail not shown here. Equal values may be shown once.

Key:
[1] = system: Mus musculus; assay: Antagonism of apomorphine for 0-10 minutes in reserpinized mice when a dose of 4 micro mol/kg is administered intraperitoneally; format: functional
[2] = system: Mus musculus; assay: Antagonism of apomorphine effects in reserpinized mice following 0.4 umol/kg i.p.; format: functional
[3] = system: Mus musculus; assay: Ability to stimulate dopaminergic systems by effect on locomotor activity in reserpinized mice when a dose of 4 micro mol/kg is administered intraperitoneally; format: functional
[4] = biological target: T1, D(2) dopamine receptor (Rattus norvegicus, UniProt P61169); assay: Inhibitory concentration against [3H]raclopride-labeled dopamine receptor D2 in rat striatum; format: tissue-based
T1 sequence (P61169 whole entry): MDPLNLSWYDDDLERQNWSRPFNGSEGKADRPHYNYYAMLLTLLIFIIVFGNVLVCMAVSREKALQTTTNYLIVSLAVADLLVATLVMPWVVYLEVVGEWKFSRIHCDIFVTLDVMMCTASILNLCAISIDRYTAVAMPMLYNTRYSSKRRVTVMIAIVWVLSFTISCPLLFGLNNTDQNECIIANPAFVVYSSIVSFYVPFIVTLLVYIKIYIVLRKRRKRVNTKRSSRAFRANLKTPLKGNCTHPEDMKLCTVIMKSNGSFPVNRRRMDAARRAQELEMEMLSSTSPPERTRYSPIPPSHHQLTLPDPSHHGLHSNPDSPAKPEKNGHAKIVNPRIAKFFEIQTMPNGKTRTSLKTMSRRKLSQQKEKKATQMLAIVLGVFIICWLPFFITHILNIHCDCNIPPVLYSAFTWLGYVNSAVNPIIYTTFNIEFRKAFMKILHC

[5] = system: Mus musculus; assay: Antagonism of apomorphine for 10-20 minutes in reserpinized mice when a dose of 4 micro mol/kg is administered intraperitoneally; format: functional
[6] = system: Mus musculus; assay: Antagonism of apomorphine effects for 10-20 minutes in reserpinized mice following 0.4 umol/kg i.p.; format: functional
[7] = system: Mus musculus; assay: Increase in locomotor activity in reserpinized mice following 0.4 umol/kg i.p.; format: functional
[8] = system: Mus musculus; assay: Antagonism of apomorphine in reserpinized mice when a dose of 4 micro mol/kg is administered intraperitoneally; format: functional
[9] = system: Mus musculus; assay: Antagonism of apomorphine effects for 0-10 minutes in reserpinized mice following 0.4 umol/kg i.p.; format: functional; design: unit not given beside the values
[10] = system: Mus musculus; assay: Antagonism of apomorphine for 0-10 minutes in reserpinized mice when a dose of 0.4 micro mol/kg is administered intraperitoneally (*,p<0.05); format: functional
[11] = biological target: T1, D(2) dopamine receptor; assay: Compound was evaluated for the binding affinity against [3H]U-86,170-labeled dopamine receptor D2 in cloned CHO cells; format: cell-based
[12] = system: Felis catus; assay: Maximum decrease of arterial blood pressure at sympathetic nerve activity (SND) in anesthetized cat has been observed following 1 mg/kg dose; format: functional; design: scale not given: the % may be the effect or the level left
[13] = system: Felis catus; assay: Maximum decrease of sympathetic nerve activity (SND) in anesthetized cat; format: functional; design: scale not given: the % may be the effect or the level left
[14] = organism: Rattus norvegicus; assay: Effect on the synthesis rates of serotonin (5-HTP accumulation) in the rat ventral limbic brain region at 3.6uMkg.; format: functional, Limbic system
[15] = system: Mus musculus; assay: Antagonism of apomorphine for 10-20 minutes in reserpinized mice when a dose of 36 micro mol/kg is administered intraperitoneally; format: functional
[16] = system: Mus musculus; assay: Effective dose on hypothermia in mouse when administered through peroral route; format: functional; conditions: po
[17] = system: Mus musculus; assay: Ability to stimulate dopaminergic systems by effect on locomotor activity in reserpinized mice when a dose of 3.6 micro mol/kg is administered intraperitoneally; format: functional
[18] = system: Mus musculus; assay: Maximum decrease in temperature when compound is administered subcutaneously; format: functional
[19] = system: Mus musculus; assay: Antagonism of apomorphine in reserpinized mice when a dose of 3.6 micro mol/kg is administered intraperitoneally; format: functional
[20] = system: Mus musculus; assay: Maximum decrease in temperature when compound is administered through peroral route; format: functional
[21] = system: Rattus norvegicus; assay: Effect on the synthesis rates of dopamine (DOPA accumulation) in the rat ventral limbic brain region at 3.6 micro mol/kg; format: functional, Limbic system
[22] = system: Mus musculus; assay: Antagonism of apomorphine for 0-10 minutes in reserpinized mice when a dose of 36 micro mol/kg is administered intraperitoneally; format: functional
[23] = system: Mus musculus; assay: Antagonism of apomorphine for 0-10 minutes in reserpinized mice when a dose of 3.6 micro mol/kg is administered intraperitoneally; format: functional
[24] = system: Mus musculus; assay: Ability to stimulate dopaminergic systems by effect on locomotor activity in reserpinized mice when a dose of 36 micro mol/kg is administered intraperitoneally; format: functional
[25] = system: Mus musculus; assay: Antagonism of apomorphine for 10-20 minutes in reserpinized mice when a dose of 3.6 micro mol/kg is administered intraperitoneally; format: functional
[26] = system: Rattus norvegicus; assay: Inhibition of firing rates of serotonergic neurons in the dorsal raphe nucleus by intravenous injection in rats; format: functional
[27] = system: Mus musculus; assay: Antagonism of apomorphine in reserpinized mice when a dose of 36 micro mol/kg is administered intraperitoneally; format: functional
[28] = system: Mus musculus; assay: Effective dose on hypothermia in mouse when administered subcutaneously; format: functional; conditions: sc
[29] = biological target: T2, D(2) dopamine receptor (Homo sapiens, UniProt P14416); assay: Intrinsic activity from GTP shift using membranes from CHO cells transfected with mammalian dopamine receptor D2.; format: cell membranes
T2 sequence (P14416 whole entry): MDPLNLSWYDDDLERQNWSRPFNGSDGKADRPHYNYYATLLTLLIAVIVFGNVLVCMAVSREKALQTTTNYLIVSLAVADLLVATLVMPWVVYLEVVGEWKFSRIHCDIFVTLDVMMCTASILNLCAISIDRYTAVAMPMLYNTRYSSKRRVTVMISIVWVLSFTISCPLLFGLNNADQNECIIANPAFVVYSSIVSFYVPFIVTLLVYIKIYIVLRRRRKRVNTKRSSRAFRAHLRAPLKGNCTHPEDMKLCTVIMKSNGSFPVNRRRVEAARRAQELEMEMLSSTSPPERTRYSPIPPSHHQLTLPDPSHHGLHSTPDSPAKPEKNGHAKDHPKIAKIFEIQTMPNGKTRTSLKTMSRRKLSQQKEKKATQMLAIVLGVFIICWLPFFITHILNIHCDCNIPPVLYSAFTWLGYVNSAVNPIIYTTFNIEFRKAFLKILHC

[30] = organism: Rattus norvegicus; assay: Effect on the synthesis rates of serotonin (5-HTP accumulation) in the rat ventral limbic brain region at 3.6uMkg; format: functional, Limbic system
[31] = biological target: T2, D(2) dopamine receptor; assay: Binding affinity against [3H]U-86,170-labeled dopamine receptor D2 in cloned CHO cells; format: cell-based
[32] = system: Rattus norvegicus; assay: Inhibition of firing rates of dopaminergic neurons in the substantia nigra pars compacta by intravenous injection in rats.; format: functional; conditions: Rattus norvegicus, Substantia nigra pars compacta, iv; read-out: ED50
[33] = system: Rattus norvegicus; assay: Inhibition of firing rates of serotonergic neurons in the dorsal raphe nucleus by intravenous injection in rats.; format: functional
[34] = system: Mus musculus; assay: Time of effect in the isolation-induced aggression behavioral assay in the mouse when a dose of 3.6 micro mol/kg is administered perorally; format: functional
[35] = system: Mus musculus; assay: Time of effect in the isolation-induced aggression behavioral assay in the mouse when a dose of 11 micro mol/kg is administered perorally; format: functional
[36] = system: Mus musculus; assay: Time of effect in the face-to-face behavioral assay in the mouse when a dose of 3.6 micro mol/kg is administered perorally; format: functional
[37] = system: Mus musculus; assay: Time of effect in the face-to-face behavioral assay in the mouse when a dose of 0.4 micro mol/kg is administered perorally; format: functional
[38] = system: Mus musculus; assay: Time of effect in the face-to-face behavioral assay in the mouse when a dose of 0.0 micro mol/kg is administered perorally; format: functional
[39] = system: Mus musculus; assay: Time of effect in the face-to-face behavioral assay in the mouse when a dose of 36 micro mol/kg is administered perorally; format: functional
[40] = system: Mus musculus; assay: Time of effect in the isolation-induced aggression behavioral assay in the mouse when a dose of 0.0 micro mol/kg is administered perorally; format: functional
[41] = system: Mus musculus; assay: Time of effect in the isolation-induced aggression behavioral assay in the mouse when a dose of 36 micro mol/kg is administered perorally; format: functional

| SMILES | Locomotor activity [2] | Locomotor activity [6] | Locomotor activity [7] | Locomotor activity [9] | Control [12] [%] | Control [13] [%] | Control [14] [%] | Locomotor activity [15] | Locomotor activity [17] | Max temperature decrease [18] | Locomotor activity [19] | Locomotor activity [22] | Locomotor activity [23] | Locomotor activity [24] | Locomotor activity [25] | Locomotor activity [27] | ED50 [28] [µmol/kg] | Intrinsic activity [29] [%] | Ki [31] [nM] | also measured |
| --- | --- | --- | --- | --- | --- | --- | --- | --- | --- | --- | --- | --- | --- | --- | --- | --- | --- | --- | --- | --- |
| CCCN1CC[C@@H]2c3ccccc3CC[C@H]21 (racemic) | 55 | 61 | 22 | 41 | – | – | – | – | – | – | – | – | – | – | – | – | – | – | – | Locomotor activity [1]: 22; Locomotor activity [3]: 15; IC50 [4]: > 1000 nM; Locomotor activity [5]: 46; Locomotor activity [8]: 48 |
| CCCN1CC[C@H]2c3ccccc3CC[C@H]21 (racemic) | 128 | 76 | 15 | – | – | – | – | – | – | – | – | – | – | – | – | – | – | – | – | Locomotor activity [10]: 56; Ki [11]: 548 nM |
| C=CCN1CC[C@H]2c3c(cccc3OC)CC[C@H]21 (racemic) | 55 | 94 | 6 | 96 | 59 | 189 | -52 | 45 | 37 | 4.2 | 6 | 54 | 121 | 70 | 94 | 4 | 8.2 | – | – | ED50 [16]: 101 µmol/kg; Max temperature decrease [20]: 3.6; Control [21]: 48%; ED50 [26]: 0.04 µmol/kg |
| C=CCN1CC[C@@H]2c3c(cccc3OC)CC[C@H]21 (racemic) | 140 | 65 | 36 | 65 | – | – | -28 | 32 | 11 | 4.5 | 30 | 40 | 65 | 48 | 57 | 5 | 40 | 0 | 8.5 | Control [30]: 158% |
| C=CCN1CCC2c3c(cccc3OC)CC[C@H]21 (single isomer, unassigned; (-)) | 50 | 45 | 7 | 29 | 55 | 385 | – | 18 | 79 | – | 14 | 24 | 52 | 52 | 49 | 11 | – | 24 | 6.7 | ED50 [32]: 0.04 µmol/kg; ED50 [33]: 0.007 µmol/kg; Time [34]: 85 s; Time [35]: 40 s; Time [36]: 1.3 s; Time [37]: 0.9 s; Time [38]: 1.2 s; Time [39]: 1.4 s; Time [40]: 18 s and 27 s; Time [41]: 236 s |
